Source: PubChem BioAssay (NCI)
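Cultured in 96-well plates, cells were exposed to test compound for 48 hours across five concentrations. Here, GI50 denotes the concentration required for 50% inhibition of growth. TGI is the concentration that stops growth completely.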

What was measured:
Experiment in all cases: inhibition of tumour cell growth, NCI panel, 48 h
SF-539 CNS = system: SF-539 CNS
SK-MEL-28 melanoma = system: SK-MEL-28 melanoma
HT29 colon = system: HT29 colon
SN12C renal = system: SN12C renal
K-562 leukemia = system: K-562 leukemia
IGROV1 ovarian = system: IGROV1 ovarian
RPMI-8226 leukemia = system: RPMI-8226 leukemia
OVCAR-8 ovarian = system: OVCAR-8 ovarian
TK-10 renal = system: TK-10 renal
SF-268 CNS = system: SF-268 CNS
MCF7 breast = system: MCF7 breast
SF-295 CNS = system: SF-295 CNS
M14 melanoma = system: M14 melanoma
T-47D breast = system: T-47D breast
HCT-116 colon = system: HCT-116 colon
U251 CNS = system: U251 CNS
NCI-H460 lung = system: NCI-H460 lung
HOP-92 NSCLC = system: HOP-92 NSCLC
ACHN renal = system: ACHN renal
COLO 205 colon = system: COLO 205 colon
OVCAR-4 ovarian = system: OVCAR-4 ovarian
UACC-257 melanoma = system: UACC-257 melanoma
DU-145 prostate = system: DU-145 prostate
SR leukemia = system: SR leukemia
EKVX NSCLC = system: EKVX NSCLC
LOX IMVI melanoma = system: LOX IMVI melanoma
MDA-MB-435 = system: MDA-MB-435
UACC-62 melanoma = system: UACC-62 melanoma
HCT-15 colon = system: HCT-15 colon
HS 578T breast = system: HS 578T breast
SK-MEL-5 melanoma = system: SK-MEL-5 melanoma
RXF 393 renal = system: RXF 393 renal
SK-MEL-2 melanoma = system: SK-MEL-2 melanoma
CCRF-CEM leukemia = system: CCRF-CEM leukemia
A498 renal = system: A498 renal
UO-31 renal = system: UO-31 renal
HOP-62 NSCLC = system: HOP-62 NSCLC
CAKI-1 renal = system: CAKI-1 renal
BT-549 breast = system: BT-549 breast
A549 NSCLC = system: A549 NSCLC
MDA-MB-231 breast = system: MDA-MB-231 breast
PC-3 prostate = system: PC-3 prostate
SW-620 colon = system: SW-620 colon
KM12 colon = system: KM12 colon
MOLT-4 leukemia = system: MOLT-4 leukemia
HCC-2998 colon = system: HCC-2998 colon
NCI-H226 lung = system: NCI-H226 lung
SK-OV-3 ovarian = system: SK-OV-3 ovarian
NCI/ADR-RES ovarian = system: NCI/ADR-RES ovarian
NCI-H522 lung = system: NCI-H522 lung
NCI-H23 lung = system: NCI-H23 lung
SNB-75 CNS = system: SNB-75 CNS
OVCAR-3 ovarian = system: OVCAR-3 ovarian
SNB-19 CNS = system: SNB-19 CNS
MALME-3M melanoma = system: MALME-3M melanoma
OVCAR-5 ovarian = system: OVCAR-5 ovarian
HL-60(TB) leukemia = system: HL-60(TB) leukemia

**Q.** How did the GI50 (SF-539 CNS) turn out when `Cn1cc(-c2nn3cc(-c4ccncc4)nc3s2)c2cc(Cl)ccc21` was run?
**A.** 4.67 µM

**Q.** What about the TGI (SF-539 CNS) of the same compound?
**A.** 10.2 µM

**Q.** What about the GI50 (SK-MEL-28 melanoma) of the same compound?
**A.** 2 µM

**Q.** What about the TGI (SK-MEL-28 melanoma) of the same compound?
**A.** 3.77 µM

**Q.** What about the GI50 (HT29 colon) of the same compound?
**A.** 2.41 µM

**Q.** What about the TGI (HT29 colon) of the same compound?
**A.** 7.31 µM

**Q.** What about the GI50 (SN12C renal) of the same compound?
**A.** 3.72 µM

**Q.** And the TGI (SN12C renal)?
**A.** 11.2 µM

**Q.** And the GI50 (K-562 leukemia)?
**A.** 2.15 µM

**Q.** And the TGI (K-562 leukemia)?
**A.** 5.3 µM

**Q.** What about the GI50 (IGROV1 ovarian) of the same compound?
**A.** 2.12 µM

**Q.** What about the TGI (IGROV1 ovarian) of the same compound?
**A.** 17.2 µM

**Q.** What about the GI50 (RPMI-8226 leukemia) of the same compound?
**A.** 2.24 µM

**Q.** What about the TGI (RPMI-8226 leukemia) of the same compound?
**A.** 6.24 µM

**Q.** What about the GI50 (OVCAR-8 ovarian) of the same compound?
**A.** 2.36 µM

**Q.** And the TGI (OVCAR-8 ovarian)?
**A.** 7.7 µM

**Q.** And the GI50 (TK-10 renal)?
**A.** 14.4 µM

**Q.** And the TGI (TK-10 renal)?
**A.** 30.9 µM

**Q.** And the GI50 (SF-268 CNS)?
**A.** 6.32 µM

**Q.** And the TGI (SF-268 CNS)?
**A.** 24.4 µM

**Q.** And the GI50 (MCF7 breast)?
**A.** 1.23 µM

**Q.** What about the TGI (MCF7 breast) of the same compound?
**A.** 3.34 µM

**Q.** And the GI50 (SF-295 CNS)?
**A.** 2.98 µM

**Q.** What about the TGI (SF-295 CNS) of the same compound?
**A.** 8.52 µM

**Q.** What about the GI50 (M14 melanoma) of the same compound?
**A.** 1.6 µM

**Q.** And the TGI (M14 melanoma)?
**A.** 3.14 µM

**Q.** What about the GI50 (T-47D breast) of the same compound?
**A.** 3.3 µM

**Q.** And the TGI (T-47D breast)?
**A.** 18.6 µM

**Q.** And the GI50 (HCT-116 colon)?
**A.** 1.76 µM

**Q.** What about the TGI (HCT-116 colon) of the same compound?
**A.** 3.3 µM

**Q.** What about the GI50 (U251 CNS) of the same compound?
**A.** 9.15 µM

**Q.** And the TGI (U251 CNS)?
**A.** 45.4 µM

**Q.** And the GI50 (NCI-H460 lung)?
**A.** 4.6 µM

**Q.** And the TGI (NCI-H460 lung)?
**A.** 17.5 µM

**Q.** And the GI50 (HOP-92 NSCLC)?
**A.** 1.61 µM

**Q.** And the TGI (HOP-92 NSCLC)?
**A.** 5.3 µM

**Q.** What about the GI50 (ACHN renal) of the same compound?
**A.** 4.78 µM

**Q.** And the TGI (ACHN renal)?
**A.** 25.3 µM

**Q.** And the GI50 (COLO 205 colon)?
**A.** 3.39 µM

**Q.** What about the TGI (COLO 205 colon) of the same compound?
**A.** 9.2 µM

**Q.** And the GI50 (OVCAR-4 ovarian)?
**A.** 5.03 µM

**Q.** And the TGI (OVCAR-4 ovarian)?
**A.** 13.6 µM

**Q.** And the GI50 (UACC-257 melanoma)?
**A.** 8.58 µM

**Q.** And the TGI (UACC-257 melanoma)?
**A.** 25.2 µM

**Q.** What about the GI50 (DU-145 prostate) of the same compound?
**A.** 6.23 µM

**Q.** And the TGI (DU-145 prostate)?
**A.** 17.4 µM

**Q.** What about the GI50 (SR leukemia) of the same compound?
**A.** 1.69 µM

**Q.** What about the TGI (SR leukemia) of the same compound?
**A.** 4.61 µM

**Q.** And the GI50 (EKVX NSCLC)?
**A.** 2.3 µM

**Q.** And the TGI (EKVX NSCLC)?
**A.** 8.54 µM

**Q.** What about the GI50 (LOX IMVI melanoma) of the same compound?
**A.** 2.64 µM

**Q.** What about the TGI (LOX IMVI melanoma) of the same compound?
**A.** 9.26 µM

**Q.** And the GI50 (MDA-MB-435)?
**A.** 2.84 µM

**Q.** What about the TGI (MDA-MB-435) of the same compound?
**A.** 8.7 µM

**Q.** What about the GI50 (UACC-62 melanoma) of the same compound?
**A.** 11.4 µM

**Q.** What about the TGI (UACC-62 melanoma) of the same compound?
**A.** 31.7 µM

**Q.** And the GI50 (HCT-15 colon)?
**A.** 1.83 µM

**Q.** And the TGI (HCT-15 colon)?
**A.** 3.78 µM

**Q.** What about the GI50 (HS 578T breast) of the same compound?
**A.** 4.73 µM

**Q.** And the TGI (HS 578T breast)?
**A.** 27.2 µM

**Q.** What about the GI50 (SK-MEL-5 melanoma) of the same compound?
**A.** 3.02 µM

**Q.** What about the TGI (SK-MEL-5 melanoma) of the same compound?
**A.** 8.25 µM

**Q.** What about the GI50 (RXF 393 renal) of the same compound?
**A.** 3.37 µM

**Q.** What about the TGI (RXF 393 renal) of the same compound?
**A.** 9.85 µM

**Q.** And the GI50 (SK-MEL-2 melanoma)?
**A.** 5.41 µM

**Q.** What about the TGI (SK-MEL-2 melanoma) of the same compound?
**A.** 14 µM

**Q.** And the GI50 (CCRF-CEM leukemia)?
**A.** 2.06 µM

**Q.** And the TGI (CCRF-CEM leukemia)?
**A.** 5.4 µM

**Q.** And the GI50 (A498 renal)?
**A.** 9.38 µM

**Q.** What about the TGI (A498 renal) of the same compound?
**A.** 23.7 µM

**Q.** What about the GI50 (UO-31 renal) of the same compound?
**A.** 4.03 µM

**Q.** What about the TGI (UO-31 renal) of the same compound?
**A.** 22.6 µM

**Q.** And the GI50 (HOP-62 NSCLC)?
**A.** 4.4 µM

**Q.** What about the TGI (HOP-62 NSCLC) of the same compound?
**A.** > 27.8 µM

**Q.** What about the GI50 (CAKI-1 renal) of the same compound?
**A.** 8.31 µM

**Q.** What about the TGI (CAKI-1 renal) of the same compound?
**A.** 28.6 µM

**Q.** And the GI50 (BT-549 breast)?
**A.** 3.39 µM

**Q.** And the TGI (BT-549 breast)?
**A.** 13.3 µM

**Q.** What about the GI50 (A549 NSCLC) of the same compound?
**A.** 11.2 µM

**Q.** And the TGI (A549 NSCLC)?
**A.** 51.7 µM

**Q.** And the GI50 (MDA-MB-231 breast)?
**A.** 1.58 µM

**Q.** And the TGI (MDA-MB-231 breast)?
**A.** 3.24 µM

**Q.** And the GI50 (PC-3 prostate)?
**A.** 2.48 µM

**Q.** And the TGI (PC-3 prostate)?
**A.** 7.82 µM

**Q.** And the GI50 (SW-620 colon)?
**A.** 1.89 µM

**Q.** What about the TGI (SW-620 colon) of the same compound?
**A.** 4.27 µM

**Q.** What about the GI50 (KM12 colon) of the same compound?
**A.** 12.5 µM

**Q.** What about the TGI (KM12 colon) of the same compound?
**A.** 37.5 µM

**Q.** What about the GI50 (MOLT-4 leukemia) of the same compound?
**A.** 2.1 µM

**Q.** What about the TGI (MOLT-4 leukemia) of the same compound?
**A.** 5.23 µM

**Q.** What about the GI50 (HCC-2998 colon) of the same compound?
**A.** 3.64 µM

**Q.** And the TGI (HCC-2998 colon)?
**A.** 10.1 µM

**Q.** And the GI50 (NCI-H226 lung)?
**A.** 4.86 µM

**Q.** What about the TGI (NCI-H226 lung) of the same compound?
**A.** 26.1 µM

**Q.** And the GI50 (SK-OV-3 ovarian)?
**A.** 12.3 µM

**Q.** And the TGI (SK-OV-3 ovarian)?
**A.** 30.6 µM

**Q.** What about the GI50 (NCI/ADR-RES ovarian) of the same compound?
**A.** 2.7 µM

**Q.** And the TGI (NCI/ADR-RES ovarian)?
**A.** 8.21 µM

**Q.** And the GI50 (NCI-H522 lung)?
**A.** 2.56 µM

**Q.** And the TGI (NCI-H522 lung)?
**A.** 10.2 µM

**Q.** And the GI50 (NCI-H23 lung)?
**A.** 5.38 µM

**Q.** What about the TGI (NCI-H23 lung) of the same compound?
**A.** 25.4 µM

**Q.** What about the GI50 (SNB-75 CNS) of the same compound?
**A.** 6.42 µM

**Q.** What about the TGI (SNB-75 CNS) of the same compound?
**A.** 24.2 µM

**Q.** What about the GI50 (OVCAR-3 ovarian) of the same compound?
**A.** 5.8 µM

**Q.** What about the TGI (OVCAR-3 ovarian) of the same compound?
**A.** 27.1 µM

**Q.** What about the GI50 (SNB-19 CNS) of the same compound?
**A.** 7.98 µM

**Q.** And the TGI (SNB-19 CNS)?
**A.** 32.7 µM

**Q.** And the GI50 (MALME-3M melanoma)?
**A.** 3.16 µM

**Q.** What about the TGI (MALME-3M melanoma) of the same compound?
**A.** 18.3 µM

**Q.** What about the GI50 (OVCAR-5 ovarian) of the same compound?
**A.** 1.86 µM

**Q.** And the TGI (OVCAR-5 ovarian)?
**A.** 3.85 µM

**Q.** What about the GI50 (HL-60(TB) leukemia) of the same compound?
**A.** 1.54 µM

**Q.** What about the TGI (HL-60(TB) leukemia) of the same compound?
**A.** 3.26 µM
